Results as given in patent publication US11149062B2, “HDAC inhibitors and methods of treatment using the same” (UWM Research Foundation, Inc., priority 2015, dated 2021).

Columns and labels:
SKOV-3 (ovarian) = assay: MTT antiproliferative assay, SKOV-3; format: cell-based; details: Homo sapiens, SK-OV-3; MTT, 48 h; read-out: Antiproliferative Activity GI50, Ovarian SKOV-3
Experimental: (§1) Briefly, the tumor cells (1×10^4 cells/well) were seeded in 96-well microtiter plates and incubated for 24 h at 37° C. Following incubation, the media was replaced with fresh media containing the above compounds at concentrations ranging from 1 μM to 1 pM diluted in DMSO and incubated for an additional 48 h. Drugs were run in duplicate or triplicate and control cells received fresh media with DMSO concentration equivalent to the treatment groups. […] After aspirating the culture medium, 200 μL of DMSO was added to dissolve the precipitate and the resulting solution was measured for absorbance at 570 nm with a reference wavelength of 690 nm using a microplate reader (Infinite M200 Pro TECAN).

COLO-205 (colon cancer) = assay: MTT antiproliferative assay, COLO-205; format: cell-based; details: Homo sapiens, COLO 205; MTT, 48 h; read-out: Antiproliferative Activity GI50, Colon COLO-205
Experimental: as §1

DU-145 (prostate cancer) = assay: MTT antiproliferative assay, DU-145; format: cell-based; details: Homo sapiens, DU-145; MTT, 48 h; read-out: Antiproliferative Activity GI50, Prostate DU-145
Experimental: as §1

[1] = tested on: MDA-MB-231 (breast cancer); assay: MTT antiproliferative assay, MDA-MB-231; format: cell-based; details: Homo sapiens, MDA-MB-231; MTT, 48 h; read-out: Antiproliferative Activity GI50, Breast MDA-MB-231
Experimental: as §1

BALB/c mice = assay: in vivo; details: BALB/c, mouse, in vivo, ip, 2 weeks

Molecule `COC(=O)[C@H]1CSSCC/C=C/C(O)CC(=O)N[C@H](CCSC)C(=O)N1` (stereo partly drawn) [TDF3m, Methyl (4S,7R,12E)-11-hydroxy-7-[2-(methylsulfanyl)ethyl]-6,9-dioxo-1,2-dithia-5,8-diazacyclopentadec-12-ene-4-carboxylate] has a GI50 (SKOV-3 (ovarian)) of 500 nM, a GI50 (COLO-205 (colon cancer)) of 900 nM and a GI50 (DU-145 (prostate cancer)) of 300 nM. For the same molecule, the GI50 [1] was 600 nM and the “MTD (toxicity in healthy BALB/c mice)” value (BALB/c mice) was greater than 200 mg/kg.
